The source of these data is patent US9051326B2, “Pyrazoline derivatives and their use as selective androgen receptor modulators” (NOVARTIS AG, priority 2011, dated 2015).

Where two headings read alike, the source gives them in different places.

The assay concerns the target T1, androgen receptor (AR) (Homo sapiens, UniProt P10275).
T1 construct: transfecting C2C12 cells with a plasmid containing full-length AR along with an AR response element linked to luciferase; expressed in transfected cells; host or cells: mouse myoblastic C2C12 cells (ATCC CRL-1772), transient transfection with Lipofectamine 2000
T1 sequence (P10275 1-920): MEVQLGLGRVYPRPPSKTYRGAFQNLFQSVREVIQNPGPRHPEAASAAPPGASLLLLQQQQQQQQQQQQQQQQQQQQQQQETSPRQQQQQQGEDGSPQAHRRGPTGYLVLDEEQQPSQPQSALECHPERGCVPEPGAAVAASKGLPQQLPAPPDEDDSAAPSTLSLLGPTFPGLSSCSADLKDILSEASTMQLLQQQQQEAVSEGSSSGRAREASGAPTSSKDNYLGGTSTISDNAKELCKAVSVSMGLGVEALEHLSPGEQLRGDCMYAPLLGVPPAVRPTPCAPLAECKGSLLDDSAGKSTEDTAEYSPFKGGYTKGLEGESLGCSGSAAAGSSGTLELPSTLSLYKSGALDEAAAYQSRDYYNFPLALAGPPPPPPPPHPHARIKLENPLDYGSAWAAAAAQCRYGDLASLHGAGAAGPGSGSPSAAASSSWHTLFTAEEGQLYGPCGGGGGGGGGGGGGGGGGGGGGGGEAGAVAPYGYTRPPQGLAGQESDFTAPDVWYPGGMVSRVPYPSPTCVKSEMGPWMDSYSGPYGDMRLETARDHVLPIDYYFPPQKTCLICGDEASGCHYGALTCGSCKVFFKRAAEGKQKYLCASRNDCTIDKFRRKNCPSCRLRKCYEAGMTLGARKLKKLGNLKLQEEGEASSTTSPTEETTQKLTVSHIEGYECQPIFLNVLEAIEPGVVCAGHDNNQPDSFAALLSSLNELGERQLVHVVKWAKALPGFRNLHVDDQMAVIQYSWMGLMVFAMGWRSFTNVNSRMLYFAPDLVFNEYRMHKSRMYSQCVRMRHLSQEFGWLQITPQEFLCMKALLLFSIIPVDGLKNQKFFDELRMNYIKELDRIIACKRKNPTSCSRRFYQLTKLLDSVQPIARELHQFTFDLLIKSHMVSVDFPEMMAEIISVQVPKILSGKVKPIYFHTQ
Put plainly: AR transcriptional activation luciferase reporter assay in C2C12 cells (Test 1). The conditions noted are these: for % Biological activity (C2C12 cell) 100 nM: 100 nM compound; for % Biological activity (C2C12 cell) 100 nM / % Biological activity (C2C12 cell) 5 μM: activity relative to 1 μM DHT. The assay is classed as cell-based. As for the experimental part:
A suitable assay to determine the ability of a ligand to transcriptionally activate androgen receptor (AR) is carried out using mouse myoblastic C2C12 cells. The assay involves transfecting C2C12 cells with a plasmid containing full-length AR along with an AR response element linked to luciferase (2XIDR17). The luminescence read-out at the end of the assay is measured using Victor 3 and is a direct measure of the transcriptional activity. The assay has been validated using the reference compound, BMS-564929, for which EC50 values have been reported in a similar set-up. Other tool compounds that have been used for assay validation are GSK-420A, Andarine, putative Ostarine, and LGD-2226.
C2C12 cells were obtained from ATCC (Cat # CRL-1772) and maintained in DMEM modified to contain 4 mM L-glutamine, 4.5 g/L glucose, 1 mM sodium pyruvate and 1.5 g/L sodium bicarbonate and 10% FBS.
AR-FL in pcDNA 3.1(+) and 2XIDR17 in pGL4.26 plasmids prepared using Genelute plasmid miniprep kit from Sigma Cat # PLED35
• C2C12 cells were seeded in a 96-well plate in DMEM (Dulbecco's Modified Eagle Medium) without phenol red and containing 10% CS-FBS (Charcoal-stripped Fetal Bovine Serum) at 8000 cells/well. • The next day, cells were transfected with an equimolar ratio of (Androgen Receptor-Full length) AR-FL and 2XIDR17-Luciferase at a total plasmid concentration of 200 ng/well using Lipofectamine 2000 following manufacturer's protocol. • For the transfection, 83 ng of AR-FL and 117 ng of 2XIDR17-Luciferase were in 12.5 μl of OptiMEM—Mix A. 0.4 μl of Lipofectamine 2000 was added to 12.5 μl of OptiMEM and incubated for 5 min at room temperature—Mix B. The two mixes A and B were mixed and incubated at room temperature for an additional fifteen minutes. An additional 50 μl of OptiMEM was added, gently mixed and this mixture was added to the cells in the 96-well plate. The above quantities are requirements per well of a 96-well plate. Master mixes were made for the entire plate, with proportional quantity of reagents being used. • 5 h after transfection, compounds were added to the wells in DMEM without phenol red and containing 10% CS-FBS, maintaining a final DMSO concentration of 0.5%. A typical dose response curve starts at 10 μM and includes a 7-point, log dilution, done in triplicates. • After overnight incubation with the compounds, 100 ul of working solution of Steadyglow reagent was added to the wells. • The plates were placed in a shaker for 15 min at the end of which the lysate containing luciferase was transferred to a white flat-bottom plate and read under a luminescence setting in Victor. • Background subtracted counts (Luminescence from DMSO control wells is considered the background) are used to calculate percentage activity, expressed relative to activity with 1 μM (Dihydrotestosterone) DHT (at least two sets of triplicates for 1 μM DHT are included per plate). Data Fitting: • The EC50 curves for the compounds for 8 compound concentrations were fitted by the respective function using non-linear least-squares regression in Graphpad Prism 4.0 (Graphpad Software, San Diego, Calif., USA).
(In general: A reporter such as luciferase makes a cellular process visible.)

[1] abbreviates: mouse myoblastic C2C12 cells transfected with AR-FL and 2XIDR17-luciferase, read-out: Biological activity (C2C12 cell) EC50.

The term EC50 denotes the concentration giving half of the maximal effect.

In the case of `CO[C@@H]1C(c2ccc(C#N)c(Cl)c2C)=NN2CC[C@@H](O)[C@@H]12` [Example 2, 2-chloro-4-((3S,3aS,4R)-4-hydroxy-3-methoxy-3a,4,5,6-tetrahydro-3H-pyrrolo[1,2-b]pyrazol-2-yl)-3-methylbenzonitrile], the EC50 is 0.6 nM.
On the same count and under the same terms, the result for `Cc1c(C2=NN3CC[C@H](O)[C@H]3[C@@H]2O)ccc(C#N)c1Cl` [Example 3, 2-chloro-4-((3S,3aS,4S)-3,4-dihydroxy-3a,4,5,6-tetrahydro-3H-pyrrolo[1,2-b]pyrazol-2-yl)-3-methylbenzonitrile] reads 821 nM.
For `Cc1c(C2=NN3CC[C@@H](O)[C@H]3[C@@H]2O)ccc(C#N)c1Cl` [Example 4, 2-chloro-4-((3S,3aS,4R)-3,4-dihydroxy-3a,4,5,6-tetrahydro-3H-pyrrolo[1,2-b]pyrazol-2-yl)-3-methylbenzonitrile], the “% Biological activity (C2C12 cell) 100 nM” value is 5%. The “% Biological activity (C2C12 cell) 5 μM” value (5 μM compound) was found to be 32%.
As to `CCO[C@@H]1C(c2ccc(C#N)c(Cl)c2C)=NN2CC[C@@H](O)[C@@H]12` [Example 6, 2-chloro-4-((3S,3aS,4R)-3-ethoxy-4-hydroxy-3a,4,5,6-tetrahydro-3H-pyrrolo[1,2-b]pyrazol-2-yl)-3-methylbenzonitrile], the concentration for a half-maximal effect (EC50) was 0.6 nM.
`Cc1c(C2=NN3CC[C@H](O)[C@H]3[C@@H]2OC(C)C)ccc(C#N)c1Cl` [Example 7, 2-chloro-4-((3S,3aS,4S)-4-hydroxy-3-isopropoxy-3a,4,5,6-tetrahydro-3H-pyrrolo[1,2-b]pyrazol-2-yl)-3-methylbenzonitrile]: it took 4 nM to reach a half-maximal effect (EC50).
`CO[C@@H]1C(c2ccc(C#N)c(Cl)c2C)=NN2C[C@H](O)C[C@@H]12` [Example 8, 2-chloro-4-((3S,3aS,5R)-5-hydroxy-3-methoxy-3a,4,5,6-tetrahydro-3H-pyrrolo[1,2-b]pyrazol-2-yl)-3-methylbenzonitrile] came in with an EC50 of 6.7 nM.
The same measure, in the same setting: the result for `CO[C@@H]1C(c2ccc(C#N)c(Cl)c2C)=NN2CC(=O)C[C@@H]12` [Example 9, 2-chloro-4-((3S,3aS)-3-methoxy-5-oxo-3a,4,5,6-tetrahydro-3H-pyrrolo[1,2-b]pyrazol-2-yl)-3-methylbenzonitrile] reads 10.5 nM.
As to `Cc1c(C2=NN3C[C@H](O)C[C@H]3[C@@H]2O)ccc(C#N)c1Cl` [Example 10, 2-chloro-4-((3S,3aS,5R)-3,5-dihydroxy-3a,4,5,6-tetrahydro-3H-pyrrolo[1,2-b]pyrazol-2-yl)-3-methylbenzonitrile], the “% Biological activity (C2C12 cell) 100 nM” value was determined as 4%. For the setting “5 μM compound”, the “% Biological activity (C2C12 cell) 5 μM” value is reported as 2%.
Consider `CO[C@@H]1C(c2ccc(C#N)c(Cl)c2C)=NN2CC(O)(C(F)(F)F)C[C@@H]12` (stereo partly drawn) [Example 11, 2-chloro-4-((3S,3aS)-5-hydroxy-3-methoxy-5-(trifluoromethyl)-3a,4,5,6-tetrahydro-3H-pyrrolo[1,2-b]pyrazol-2-yl)-3-methylbenzonitrile], for which the “% Biological activity (C2C12 cell) 100 nM” value worked out at 24%. Under “5 μM compound”, the “% Biological activity (C2C12 cell) 5 μM” value was determined as 33%.
The compound `CO[C@@H]1C(c2ccc(C#N)c(Cl)c2C)=NN2CC[C@@H](F)[C@@H]12` [Example 12, 2-chloro-4-((3S,3aR,4R)-4-fluoro-3-methoxy-3a,4,5,6-tetrahydro-3H-pyrrolo[1,2-b]pyrazol-2-yl)-3-methylbenzonitrile] yielded an EC50 of 0.1 nM.
On the same count and under the same terms, the figure for `CO[C@@H]1C(c2ccc(C#N)c(Cl)c2C)=NN2CC[C@H](F)[C@@H]12` [Example 13, 2-chloro-4-((3S,3aR,4S)-4-fluoro-3-methoxy-3a,4,5,6-tetrahydro-3H-pyrrolo[1,2-b]pyrazol-2-yl)-3-methylbenzonitrile] is 1.3 nM; for `CO[C@@H]1C(c2ccc(C#N)c(Cl)c2C)=NN2C[C@@H](F)C[C@@H]12` [Example 14, 2-chloro-4-((3S,3aS,5S)-5-fluoro-3-methoxy-3a,4,5,6-tetrahydro-3H-pyrrolo[1,2-b]pyrazol-2-yl)-3-methylbenzonitrile] it is 1.7 nM; for `CO[C@@H]1C(c2ccc(C#N)c(Cl)c2C)=NN2CC(F)(F)C[C@@H]12` [Example 15, 2-chloro-4-((3S,3aS)-5,5-difluoro-3-methoxy-3a,4,5,6-tetrahydro-3H-pyrrolo[1,2-b]pyrazol-2-yl)-3-methylbenzonitrile] it is 0.1 nM.
Consider `Cc1c(C2=NN3CC[C@H](O)[C@H]3[C@@H]2OCCF)ccc(C#N)c1Cl` [Example 16, 2-chloro-4-((3S,3aS,4S)-3-(2-fluoroethoxy)-4-hydroxy-3a,4,5,6-tetrahydro-3H-pyrrolo[1,2-b]pyrazol-2-yl)-3-methylbenzonitrile], for which a half-maximal response (EC50) required 2 nM.
`Cc1c(C2=NN3CC[C@H](O)[C@H]3[C@@H]2OCC2CC2)ccc(C#N)c1Cl` [Example 17, 2-chloro-4-((3S,3aS,4S)-3-(cyclopropylmethoxy)-4-hydroxy-3a,4,5,6-tetrahydro-3H-pyrrolo[1,2-b]pyrazol-2-yl)-3-methylbenzonitrile]: the “% Biological activity (C2C12 cell) 100 nM” value is 91%. In addition, the “% Biological activity (C2C12 cell) 5 μM” value (5 μM compound) is on record as 100%.
Consider `CO[C@@H]1C(c2ccc(C#N)c(Cl)c2C)=NN2C[C@@H](O)C[C@@H]12` [Example 18, 2-chloro-4-((3S,3aS,5S)-5-hydroxy-3-methoxy-3a,4,5,6-tetrahydro-3H-pyrrolo[1,2-b]pyrazol-2-yl)-3-methylbenzonitrile], for which, under “5 μM compound, symbol defined in table footnote”, the “activity at 5 μM concentration (C2C12 cell)” value was “** (at 5 μM concentration, <10% activity)”.
In turn, `CO[C@@H]1C(c2ccc(C#N)c(Cl)c2C)=NN2C[C@@H](I)C[C@@H]12` [Example 19, 2-chloro-4-((3S,3aS,5S)-5-iodo-3-methoxy-3a,4,5,6-tetrahydro-3H-pyrrolo[1,2-b]pyrazol-2-yl)-3-methylbenzonitrile] registered an EC50 of 7 nM.
For the compound `CO[C@H]1CCN2N=C(c3ccc(C#N)c(Cl)c3C)[C@@H](OC)[C@H]12` [Example 20, 2-chloro-4-((3S,3aS,4S)-3,4-dimethoxy-3a,4,5,6-tetrahydro-3H-pyrrolo[1,2-b]pyrazol-2-yl)-3-methylbenzonitrile], the concentration giving a half-maximal response (EC50) under setting [1] came out at 7.1 nM.
Consider `COCCO[C@@H]1C(c2ccc(C#N)c(Cl)c2C)=NN2CC[C@H](O)[C@@H]12` [Example 21, 2-chloro-4-((3S,3aS,4S)-4-hydroxy-3-(2-methoxyethoxy)-3a,4,5,6-tetrahydro-3H-pyrrolo[1,2-b]pyrazol-2-yl)-3-methylbenzonitrile], for which the EC50 under setting [1] was found to be 0.93 nM.
